Type in all cases: functional
Assay [1] has as its system Candida albicans. Nature of the assay: Synergistic antifungal activity against fluconazole-resistant Candida albicans 103 assessed as inhibition of fungal growth in presence of fluconazole by checker board microdilution assay.
For assay [2], the system named is Candida albicans. Kind of assay: Synergistic antifungal activity against fluconazole-resistant Candida albicans 904 assessed as inhibition of fungal growth in presence of fluconazole by checker board microdilution assay. Background: Dilution methods test growth across graded concentrations, often in twofold steps.
Assay [3] deals with Candida albicans. Kind of assay: Synergistic antifungal activity against fluconazole-resistant Candida albicans 100 assessed as inhibition of fungal growth in presence of fluconazole by checker board microdilution assay.
Assay [4] relates to Candida albicans. Nature of the assay: Synergistic antifungal activity against fluconazole-resistant Candida albicans 311 assessed as inhibition of fungal growth in presence of fluconazole by checker board microdilution assay.
Assay [5] relates to Candida albicans. Nature of the assay: Synergistic antifungal activity against fluconazole-resistant Candida albicans 632 assessed as inhibition of fungal growth in presence of fluconazole by checker board microdilution assay.
Assay [6] has as its system Candida albicans. Kind of assay: Synergistic antifungal activity against fluconazole-resistant Candida albicans 901 assessed as inhibition of fungal growth in presence of fluconazole by checker board microdilution assay.

Where only a bound is given, the exact number is not on record here.

This is an account of results in ChEMBL document CHEMBL5154804, “Species-Selective Targeting of Fungal Hsp90: Design, Synthesis, and Evaluation of Novel 4,5-Diarylisoxazole Derivatives for the Combination Treatment of Azole-Resistant Candidiasis” (J Med Chem, 2022).

A word on the MIC80: it is the lowest concentration that inhibits either 80% of growth or 80% of the strains tested, depending on the study.

Turning to `CCNC(=O)c1noc(-c2cc(-c3ccccc3Cl)c(O)cc2O)c1-c1ccc(CN2CCOCC2)cc1`, the MIC80 in the assay with Candida albicans [1], in the assay on Candida albicans [2], in the assay on Candida albicans [3], in the assay on Candida albicans [4], in the assay with Candida albicans [5] and in the assay on Candida albicans [6] was over 64 µg/mL throughout.

Take `CCNC(=O)c1noc(-c2cc(-c3ccc(C)cc3)c(O)cc2O)c1-c1ccc(CN2CCSCC2)cc1`: the MIC80 in the assay with Candida albicans [1] was found to be 1 µg/mL; in the assay with Candida albicans [2] it was 8 µg/mL; with Candida albicans [3], 2 µg/mL; in the assay with Candida albicans [4], 2 µg/mL; in the assay on Candida albicans [5], 0.5 µg/mL; with Candida albicans [6], 0.5 µg/mL.

On to `CCNC(=O)c1noc(-c2cc(-c3ccc(C)cc3)c(O)cc2O)c1-c1ccc(CN2CCN(C)CC2)cc1`, for which the MIC80 with Candida albicans [1] is over 64 µg/mL; in the assay on Candida albicans [2], over 64 µg/mL; with Candida albicans [3], over 64 µg/mL; with Candida albicans [4] it was over 64 µg/mL; in the assay on Candida albicans [5], over 64 µg/mL; with Candida albicans [6], 64 µg/mL.

As for `Cc1ccc(-c2cc(-c3onc(C(=O)N4CCC4)c3-c3ccc(CN4CCCCC4)cc3)c(O)cc2O)cc1`, the MIC80 with Candida albicans [1] is over 64 µg/mL; in the assay with Candida albicans [2] it was over 64 µg/mL; in the assay on Candida albicans [3], over 64 µg/mL; with Candida albicans [4] it was 16 µg/mL; in the assay on Candida albicans [5], over 64 µg/mL; in the assay on Candida albicans [6], 16 µg/mL.

For `CCNC(=O)c1noc(-c2cc(-c3ccccc3F)c(O)cc2O)c1-c1ccc(CN2CCOCC2)cc1`, the MIC80 in the assay on Candida albicans [1], in the assay on Candida albicans [2], with Candida albicans [3], with Candida albicans [4], in the assay on Candida albicans [5] and with Candida albicans [6] was over 64 µg/mL in each case.

On to `Cc1ccc(-c2cc(-c3onc(C(=O)NC(C)C)c3-c3ccc(CN4CCCCC4)cc3)c(O)cc2O)cc1`, for which the MIC80 in the assay on Candida albicans [1] came to 4 µg/mL; with Candida albicans [2], 2 µg/mL; in the assay with Candida albicans [3], 8 µg/mL; in the assay on Candida albicans [4], 8 µg/mL; in the assay with Candida albicans [5], 2 µg/mL; with Candida albicans [6] it was 4 µg/mL.

Turning to `CCNC(=O)c1noc(-c2cc(-c3ccc(C(C)C)cc3)c(O)cc2O)c1-c1ccc(CN2CCOCC2)cc1`, the MIC80 in the assay with Candida albicans [1], in the assay with Candida albicans [2], in the assay with Candida albicans [3], in the assay with Candida albicans [4], with Candida albicans [5] and in the assay on Candida albicans [6] was over 64 µg/mL in each case.

In the case of `CCNC(=O)c1noc(-c2cc(-c3ccc(C(C)(C)C)cc3)c(O)cc2O)c1-c1ccc(CN2CCOCC2)cc1`, the MIC80 in the assay on Candida albicans [1], in the assay on Candida albicans [2], in the assay on Candida albicans [3], with Candida albicans [4], in the assay with Candida albicans [5] and in the assay with Candida albicans [6] was over 64 µg/mL throughout.

On to `CCNC(=O)c1noc(-c2cc(-c3ccc(C)cc3)c(O)cc2O)c1-c1ccc(CN2CC(C)CC(C)C2)cc1` (centres undefined), for which the MIC80 in the assay on Candida albicans [1] came out at 16 µg/mL; in the assay with Candida albicans [2], 1 µg/mL; in the assay with Candida albicans [3], 4 µg/mL; with Candida albicans [4], 2 µg/mL; with Candida albicans [5], 2 µg/mL; in the assay on Candida albicans [6], 0.5 µg/mL.

Consider `Cc1ccc(-c2cc(-c3onc(C(=O)NC4COC4)c3-c3ccc(CN4CCCCC4)cc3)c(O)cc2O)cc1`, for which the MIC80 with Candida albicans [1] is over 64 µg/mL; in the assay on Candida albicans [2], over 64 µg/mL; in the assay on Candida albicans [3] it was over 64 µg/mL; in the assay with Candida albicans [4] it was over 64 µg/mL; in the assay on Candida albicans [5] it was over 64 µg/mL; in the assay with Candida albicans [6], 32 µg/mL.

For the compound `CCNC(=O)c1noc(-c2cc(-c3ccccc3C(C)C)c(O)cc2O)c1-c1ccc(CN2CCOCC2)cc1`, the MIC80 in the assay on Candida albicans [1], in the assay with Candida albicans [2], in the assay on Candida albicans [3], with Candida albicans [4], with Candida albicans [5] and in the assay on Candida albicans [6] was over 64 µg/mL in each case.

In the case of `CCNC(=O)c1noc(-c2cc(-c3ccc(C)cc3)c(O)cc2O)c1-c1ccc(CNC2CCCC2)cc1`, the MIC80 in the assay on Candida albicans [1], in the assay with Candida albicans [2], in the assay on Candida albicans [3], in the assay with Candida albicans [4], in the assay on Candida albicans [5] and in the assay on Candida albicans [6] was over 64 µg/mL throughout.

Take `CCNC(=O)c1noc(-c2cc(-c3cccc(C(F)(F)F)c3)c(O)cc2O)c1-c1ccc(CN2CCOCC2)cc1`: the MIC80 with Candida albicans [1], with Candida albicans [2], in the assay with Candida albicans [3], in the assay with Candida albicans [4], in the assay with Candida albicans [5] and in the assay with Candida albicans [6] was over 64 µg/mL throughout.

With `CCNC(=O)c1noc(-c2cc(-c3ccc(C)cc3)c(O)cc2O)c1-c1ccc(CN2CCC(N3CCOCC3)CC2)cc1`, the MIC80 in the assay on Candida albicans [1], in the assay with Candida albicans [2], with Candida albicans [3], with Candida albicans [4], in the assay with Candida albicans [5] and in the assay on Candida albicans [6] was over 64 µg/mL throughout.

On to `CCNC(=O)c1noc(-c2cc(-c3ccc(F)cc3)c(O)cc2O)c1-c1ccc(CN2CCOCC2)cc1`, for which the MIC80 in the assay on Candida albicans [1] came out at 16 µg/mL; with Candida albicans [2], 1 µg/mL; in the assay with Candida albicans [3], 16 µg/mL; in the assay with Candida albicans [4] it was 16 µg/mL; in the assay with Candida albicans [5], 4 µg/mL; in the assay with Candida albicans [6], 2 µg/mL.

With `Cc1ccc(-c2cc(-c3onc(C(=O)NC4CCC4)c3-c3ccc(CN4CCOCC4)cc3)c(O)cc2O)cc1`, the MIC80 is 32 µg/mL in the assay with Candida albicans [1]; 4 µg/mL in the assay on Candida albicans [2]; 16 µg/mL in the assay on Candida albicans [3]; over 64 µg/mL with Candida albicans [4]; 64 µg/mL in the assay with Candida albicans [5]; 8 µg/mL in the assay on Candida albicans [6].

As to `CCNC(=O)c1noc(-c2cc(-c3ccc(C)cc3)c(O)cc2O)c1-c1ccc(CN2CCS(=O)(=O)CC2)cc1`, the MIC80 in the assay on Candida albicans [1] was over 64 µg/mL; in the assay on Candida albicans [2], 32 µg/mL; in the assay with Candida albicans [3] it was over 64 µg/mL; with Candida albicans [4], 16 µg/mL; in the assay on Candida albicans [5], over 64 µg/mL; in the assay with Candida albicans [6], 64 µg/mL.

For the compound `CCNC(=O)c1noc(-c2cc(-c3ccccc3CC)c(O)cc2O)c1-c1ccc(CN2CCOCC2)cc1`, the MIC80 in the assay with Candida albicans [1], in the assay with Candida albicans [2], in the assay on Candida albicans [3], in the assay on Candida albicans [4], in the assay on Candida albicans [5] and in the assay on Candida albicans [6] was over 64 µg/mL in each case.

On to `CCNC(=O)c1noc(-c2cc(-c3ccc(OC(F)(F)F)cc3)c(O)cc2O)c1-c1ccc(CN2CCOCC2)cc1`, for which the MIC80 in the assay with Candida albicans [1], with Candida albicans [2], in the assay with Candida albicans [3], in the assay with Candida albicans [4], with Candida albicans [5] and in the assay on Candida albicans [6] was over 64 µg/mL in each case.

Consider `Cc1ccc(-c2cc(-c3onc(C(=O)N(C)C)c3-c3ccc(CN4CCOCC4)cc3)c(O)cc2O)cc1`, for which the MIC80 with Candida albicans [1] was determined as 16 µg/mL; in the assay with Candida albicans [2], 8 µg/mL; in the assay with Candida albicans [3], 32 µg/mL; in the assay on Candida albicans [4] it was 32 µg/mL; in the assay on Candida albicans [5] it was 8 µg/mL; in the assay on Candida albicans [6] it was 4 µg/mL.

With `CCCNC(=O)c1noc(-c2cc(-c3ccc(C)cc3)c(O)cc2O)c1-c1ccc(CN2CCCCC2)cc1`, the MIC80 with Candida albicans [1] came to 4 µg/mL; in the assay with Candida albicans [2], 2 µg/mL; in the assay with Candida albicans [3], 8 µg/mL; in the assay on Candida albicans [4], 8 µg/mL; with Candida albicans [5], 4 µg/mL; in the assay on Candida albicans [6], 4 µg/mL.

As to `CCNC(=O)c1noc(-c2cc(-c3ccc(C(F)(F)F)cc3)c(O)cc2O)c1-c1ccc(CN2CCOCC2)cc1`, the MIC80 in the assay with Candida albicans [1], in the assay on Candida albicans [2], in the assay on Candida albicans [3], in the assay on Candida albicans [4], with Candida albicans [5] and with Candida albicans [6] was over 64 µg/mL in each case.

As to `CCNC(=O)c1noc(-c2cc(-c3ccc(OC)cc3)c(O)cc2O)c1-c1ccc(CN2CCOCC2)cc1`, the MIC80 with Candida albicans [1] amounted to 8 µg/mL; in the assay on Candida albicans [2], 4 µg/mL; with Candida albicans [3] it was 8 µg/mL; with Candida albicans [4], 16 µg/mL; in the assay with Candida albicans [5] it was 16 µg/mL; in the assay on Candida albicans [6], 8 µg/mL.

Regarding `Cc1ccc(-c2cc(-c3onc(C(=O)NC4COC4)c3-c3ccc(CN4CCOCC4)cc3)c(O)cc2O)cc1`, the MIC80 with Candida albicans [1], with Candida albicans [2], in the assay with Candida albicans [3], with Candida albicans [4], in the assay with Candida albicans [5] and with Candida albicans [6] was over 64 µg/mL in each case.

Turning to `CCCNC(=O)c1noc(-c2cc(-c3ccc(C)cc3)c(O)cc2O)c1-c1ccc(CN2CCOCC2)cc1`, the MIC80 with Candida albicans [1] amounted to 32 µg/mL; in the assay on Candida albicans [2], 4 µg/mL; with Candida albicans [3], 16 µg/mL; in the assay with Candida albicans [4], 64 µg/mL; in the assay on Candida albicans [5] it was 32 µg/mL; with Candida albicans [6] it was 4 µg/mL.

In the case of `CCNC(=O)c1noc(-c2cc(-c3ccc(C)cc3)c(O)cc2O)c1-c1ccc(CNC2CCOCC2)cc1`, the MIC80 in the assay with Candida albicans [1], with Candida albicans [2], in the assay on Candida albicans [3], in the assay with Candida albicans [4], in the assay on Candida albicans [5] and with Candida albicans [6] was over 64 µg/mL throughout.

As to `CCN(CC)C(=O)c1noc(-c2cc(-c3ccc(C)cc3)c(O)cc2O)c1-c1ccc(CN2CCCCC2)cc1`, the MIC80 in the assay with Candida albicans [1] came out at 2 µg/mL; in the assay on Candida albicans [2], 8 µg/mL; in the assay with Candida albicans [3], 4 µg/mL; in the assay with Candida albicans [4], 4 µg/mL; in the assay with Candida albicans [5], 4 µg/mL; in the assay with Candida albicans [6], 4 µg/mL.

For the compound `CCNC(=O)c1noc(-c2cc(-c3ccc(Cl)cc3)c(O)cc2O)c1-c1ccc(CN2CCOCC2)cc1`, the MIC80 was 8 µg/mL in the assay on Candida albicans [1]; 0.5 µg/mL with Candida albicans [2]; 4 µg/mL with Candida albicans [3]; 16 µg/mL in the assay on Candida albicans [4]; 8 µg/mL with Candida albicans [5]; 0.5 µg/mL in the assay on Candida albicans [6].

For the compound `Cc1ccc(-c2cc(-c3onc(C(=O)N4CCCC4)c3-c3ccc(CN4CCOCC4)cc3)c(O)cc2O)cc1`, the MIC80 with Candida albicans [1], with Candida albicans [2], in the assay with Candida albicans [3], in the assay on Candida albicans [4], with Candida albicans [5] and with Candida albicans [6] was over 64 µg/mL throughout.
